Columns and labels:
[1] = tested on: MCT-induced pulmonary arterial hypertension in rat; test: Rat monocrotaline (MCT) model of pulmonary arterial hypertension; format: in vivo; conditions: 30 mg/kg oral gavage twice a day for 21 days; 60 mg/kg MCT s.c.; male Wistar rats; Day 22
Protocol: Example 4: Rat Model of Pulmonary Arterial Hypertension
Male Wistar rats (100-150 g at start of study) (Charles River Laboratories, Wilmington, Mass.) were housed two per cage and maintained in a humidity—(40-60%) and temperature—(68-72° F.) controlled facility on a 12 hr:12 hr light/dark cycle (lights on at 6:30 am) with free access to food (Harlan Teklad, Orange Calif., Rodent Diet 8604) and water. Rats were allowed one week of habituation to the animal facility before testing.
The rat monocrotaline (MCT) model is a standard and well-accepted model of pulmonary arterial hypertension. MCT induces acute pulmonary endothelial damage associated with pulmonary vascular inflammation. […]
Rats were randomly given a single subcutaneous injection of either 60 mg/kg MCT (Sigma, St. Louis, Mo.) or 0.9% saline (sham) and assigned to receive oral administration of 20% hydroxypropyl beta-cyclodextrin (vehicle) or test compound (30 mg/kg; FIGS. 1 and 2). […] Heart chamber weights were measured on Day 22. […] The ratio of right ventricular (RV) weight to left ventricle plus septum (LV+S) weight (this ratio is indicated as “RV/(LV+S)” in FIGS. 1 and 2) was calculated as an index of the hypertrophic response to the induced pulmonary arterial hypertension and, as such, as an index of a test compound's therapeutic efficacy for pulmonary arterial hypertension.

[2] = biological target: human prostacyclin (PGI2) receptor (Homo sapiens (Human), UniProt P43119); test: HTRF assay for direct cAMP measurement; format: cell-based; conditions: recombinant CHO-K1 cells stably transfected with human prostacyclin receptor; cAMP increase
Source text: Example 2: Homogeneous Time-Resolved Fluorescence (HTRF®) Assay for Direct cAMP Measurement
Compounds were screened for agonists of the human prostacyclin (PGI2) receptor using the HTRF® assay for direct cAMP measurement (Gabriel et al., ASSAY and Drug Development Technologies, 1:291-303, 2003) and recombinant CHO-K1 cells stably transfected with human prostacyclin receptor. CHO-K1 cells were obtained from ATCC® (Manassas, Va.; Catalog # CCL-61). An agonist of the prostacyclin receptor was detected in HTRF® assay for direct cAMP measurement as a compound which increased cAMP concentration. HTRF® assay also was used to determine EC50 values for prostacyclin receptor agonists.
The HTRF® assay kit was purchased from Cisbio-US, Inc. (Bedford, Mass.; Catalog #62AM4PEC). The HTRF® assay supported by the kit is a competitive immunoassay between endogenous cAMP produced by the CHO-K1 cells and tracer cAMP labeled with the dye d2. The tracer binding is visualized by a monoclonal anti-cAMP antibody labeled with Cryptate. The specific signal (i.e., fluorescence resonance energy transfer, FRET) is inversely proportional to the concentration of unlabeled cAMP in the standard or sample.
The fluorescence ratio (665 nm/620 nm) of the standards (0.17 to 712 nM cAMP) included in the assay was calculated and used to generate a cAMP standard curve according to the kit manufacturer's instructions. The fluorescence ratio of the samples (test compound or compound buffer) was calculated and used to deduce respective cAMP concentrations by reference to the cAMP standard curve.
The HTRF® assay was carried out using a two-step protocol essentially according to the kit manufacturer's instructions, in 20 μL total volume per well in 384-well plate format (ProxiPlates; PerkinElmer, Fremont, Calif.; catalog #6008280). To each of the experimental wells was transferred 3000 recombinant CHO-K1 cells in 5 μL assay buffer (phosphate buffered saline containing calcium chloride and magnesium chloride (Invitrogen, Carlsbad, Calif.; catalog #14040) supplemented with IBMX (100 μM) and rolipram (10 μM) (phosphodiesterase inhibitors; Sigma-Aldrich, St. Louis, Mo.; catalog #15879 and catalog #R6520, respectively) and 0.1% bovine serum albumin (BSA) fraction V (Sigma-Aldrich; catalog # A3059)), followed by test compound in 5 μL assay buffer or 5 μL assay buffer. The plate was then incubated at room temperature for 1 h. […] The plate was then further incubated at room temperature for 1 h, after which the assay plate was read.
The HTRF® readout was accomplished using a PHERAstar (BMG LABTECH Inc., Durham, N.C.) or EnVision™ (PerkinElmer, Fremont Calif.) microplate reader.

[3] = tested on: human platelet-rich plasma (PRP); test: Human platelet aggregation inhibition test (ADP-induced, PRP); format: cell-based; conditions: inhibition of aggregation induced by 1x10^-5 M ADP in human PRP
Protocol: Example 3: Human Platelet Aggregation Inhibition Test
Blood collected from healthy human volunteers in aqueous trisodium citrate solution was centrifuged at 150 g for 15 min and the upper layer was recovered to obtain platelet-rich plasma (PRP). The residual blood was centrifuged at 3000 g for 10 min and the supernatant was collected as platelet-poor plasma (PPP). Platelet concentration in the PRP was determined using the Z series Beckman Coulter particle counter (Beckman, Fullerton, Calif.) and adjusted to 250,000 platelets/μL using PPP. 480 μL of PRP was pre-incubated at 37° C. and stirred at 1200 rpm with 10 μL aqueous test compound solution for 1 min prior to induction of aggregation by the addition of 10 μL of aqueous adenosine diphosphate (ADP) solution to adjust the final ADP concentration in the PRP to 1×10^−5 M. The maximal amplitude of aggregation response within 3 min was determined and measured in triplicate using the Chronolog model 490 aggregometer (Chrono-log Corp., Havertown, Pa.). Percent inhibition of aggregation was calculated from the maximum decrease in optical density of the control (addition of water in place of the test compound solution) sample and of the samples containing test compound. The test compound was added to adjust the final concentration to the range 10^−9 to 10^−4 M, and IC50 values were determined by inhibition percentage of aggregation at each concentration.

Sequence of human prostacyclin (PGI2) receptor (P43119 whole entry): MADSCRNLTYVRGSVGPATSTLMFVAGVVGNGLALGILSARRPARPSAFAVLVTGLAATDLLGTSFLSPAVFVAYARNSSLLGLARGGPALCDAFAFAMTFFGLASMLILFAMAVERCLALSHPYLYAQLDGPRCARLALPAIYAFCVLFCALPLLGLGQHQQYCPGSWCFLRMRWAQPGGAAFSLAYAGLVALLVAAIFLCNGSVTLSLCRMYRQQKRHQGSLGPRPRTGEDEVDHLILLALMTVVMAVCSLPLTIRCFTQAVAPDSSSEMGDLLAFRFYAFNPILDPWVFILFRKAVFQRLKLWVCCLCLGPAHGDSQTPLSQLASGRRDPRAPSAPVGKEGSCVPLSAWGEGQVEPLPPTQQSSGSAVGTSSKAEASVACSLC

| Compound | right ventricle hypertrophic response, RV/(LV+S) [1] | EC50 [2] [nM] | IC50 [3] [nM] |
| --- | --- | --- | --- |
| COc1cccc(-c2c(-c3ccccc3)nn(C[C@H]3CC[C@@H](COCC(=O)O)CC3)c2C)c1 [Compound 14, 2-(((1s,4s)-4-((4-(3-Methoxyphenyl)-5-methyl-3-phenyl-1H-pyrazol-1-yl)methyl)cyclohexyl)methoxy)acetic Acid] | inhibited the hypertrophic response | – | – |
| COc1cccc(-c2c(-c3ccccc3)nn(C[C@H]3CC[C@@H](COCC(=O)O)CC3)c2SC)c1 [Compound 31, 2-(((1s,4s)-4-((4-(3-Methoxyphenyl)-5-(methylthio)-3-phenyl-1H-pyrazol-1-yl)methyl)cyclohexyl)methoxy)acetic Acid] | inhibited the hypertrophic response | – | – |
| CCSc1c(-c2cccc(OC)c2F)c(-c2ccccc2)nn1C[C@H]1CC[C@@H](COCC(=O)O)CC1 [Compound 90, 2-(((1s,4s)-4-((5-(Ethylthio)-4-(2-fluoro-3-methoxyphenyl)-3-phenyl-1H-pyrazol-1-yl)methyl)cyclohexyl)methoxy)acetic Acid] | – | 7 | – |
| CSc1c(-c2ccc(C)s2)c(-c2ccccc2)nn1C[C@H]1CC[C@@H](COCC(=O)O)CC1 [Compound 111, 2-(((1s,4s)-4-((5-(Methylthio)-4-(5-methylthiophen-2-yl)-3-phenyl-1H-pyrazol-1-yl)methyl)cyclohexyl)methoxy)acetic Acid] | – | 16 | 28 |
| CSc1c(-c2cncc(F)c2)c(-c2ccccc2)nn1C[C@H]1CC[C@@H](COCC(=O)O)CC1 [Compound 135, 2-(((1s,4s)-4-((4-(5-Fluoropyridin-3-yl)-5-(methylthio)-3-phenyl-1H-pyrazol-1-yl)methyl)cyclohexyl)methoxy)acetic Acid] | – | – | 220 |
| O=C(O)COC[C@H]1CC[C@@H](Cn2nc(-c3ccccc3)c(-c3ccccc3)c2SCCO)CC1 [Compound 146, 2-(((1s,4s)-4-((5-(2-Hydroxyethylthio)-3,4-diphenyl-1H-pyrazol-1-yl)methyl)cyclohexyl)methoxy)acetic Acid] | – | – | 70 |
| N#CCSc1c(-c2ccccc2)c(-c2ccccc2)nn1C[C@H]1CC[C@@H](COCC(=O)O)CC1 [Compound 184, 2-(((1s,4s)-4-((5-(Cyanomethylthio)-3,4-diphenyl-1H-pyrazol-1-yl)methyl)cyclohexyl)methoxy)acetic Acid] | – | 11 | 20 |
| COc1cccc(-c2c(-c3ccccc3)nn(C[C@H]3CC[C@@H](COCC(=O)O)CC3)c2SCCO)c1 [Compound 198, 2-(((1s,4s)-4-((5-(2-Hydroxyethylthio)-4-(3-methoxyphenyl)-3-phenyl-1H-pyrazol-1-yl)methyl)cyclohexyl)methoxy)acetic Acid] | – | 2 | – |
